From patent US20210238176A1, “PESTICIDALLY-ACTIVE BICYCLIC HETEROAROMATIC COMPOUNDS” (SYNGENTA CROP PROTECTION AG, priority 2018, published 2021)

What was measured:
Format in all cases: in vivo
[1] = tested on: neonicotinoid-resistant Myzus persicae; assay: Myzus persicae (neonicotinoid-resistant) mixed population, contact, pea seedlings; settings: 120 h, neonicotinoid-resistant strain on pea seedlings, 5 days after treatment, read-out: control (mortality)
Experimental: Myzus persicae (Green Peach Aphid—Neonicotinoid-Resistant), Mixed Population, Contact
Pea seedlings infested with a mixed-aged neonicotinoid-resistant Myzus persicae population were treated with diluted test solutions in a spray chamber and checked for mortality 5 days after treatment.

[2] = tested on: Myzus persicae (Green Peach Aphid); assay: Myzus persicae systemic activity, pea seedling roots in test solution; settings: 144 h, test rate 24 ppm, systemic via pea seedling roots, 6 days
Experimental: Myzus persicae (Green Peach Aphid). Systemic Activity
Roots of pea seedlings infested with an aphid population of mixed ages were placed directly into aqueous test solutions prepared from 10,000 ppm DMSO stock solutions. The samples were assessed for mortality 6 days after placing seedlings into test solutions.

[3] = tested on: Myzus persicae (Green Peach Aphid); assay: Myzus persicae (green peach aphid) feeding/contact activity, sunflower leaf discs; settings: foliar, 144 h, application rate 200 ppm, aphid population of mixed ages, 6 days after infestation
Experimental: Myzus persicae (Green Peach Aphid): Feeding/Contact Activity
Sunflower leaf discs were placed onto agar in a 24-well microtiter plate and sprayed with aqueous test solutions prepared from 10,000 ppm DMSO stock solutions. After drying, the leaf discs were infested with an aphid population of mixed ages. The samples were assessed for mortality 6 days after infestation.

[4] = tested on: Myzus persicae (Green Peach Aphid); assay: Myzus persicae intrinsic activity, sucrose solution under Parafilm; settings: 120 h, test rate 12 ppm, 5 days after infestation
Text: Myzus persicae (Green Peach Aphid). Intrinsic Activity
Test compounds prepared from 10,000 ppm DMSO stock solutions were applied by pipette into 24-well microtiter plates and mixed with sucrose solution. The plates were closed with a stretched Parafilm. A plastic stencil with 24 holes was placed onto the plate and infested pea seedlings were placed directly on the Parafilm. The infested plate was closed with a gel blotting paper and another plastic stencil and then turned upside down. The samples were assessed for mortality 5 days after infestation.

[5] = tested on: Bemisia tabaci (Cotton White Fly); assay: Bemisia tabaci (cotton white fly) feeding/contact activity, cotton leaf discs; settings: foliar, 144 h, application rate 200 ppm, adult white flies, 6 days after incubation
Experimental: Bemisia tabaci (Cotton White Fly): Feeding/Contact Activity
Cotton leaf discs were placed on agar in 24-well microtiter plates and sprayed with aqueous test solutions prepared from 10,000 ppm DMSO stock solutions. After drying the leaf discs were infested with adult white flies. The samples were checked for mortality 6 days after incubation.

[6] = tested on: neonicotinoid-resistant Myzus persicae; assay: Myzus persicae (neonicotinoid-resistant) mixed population, contact/feeding, pepper plants; settings: 120 h, neonicotinoid-resistant strain on pepper plants, 5 days after treatment, read-out: control (mortality)
Experimental: Myzus persicae (Neonicotinoid-Resistant, Green Peach Aphid), Mixed Population, Contact/Feeding.
Pepper plants were infested with mixed aged neonicotinoid-resistant aphid population and were treated 1 day after infestation with diluted test solutions in a spray chamber. 5 days after treatment, samples were assessed for mortality.

[7] = tested on: neonicotinoid-resistant Bemisia tabaci; assay: Bemisia tabaci (metabolic neonicotinoid-resistant) adult, cotton leaf discs; settings: foliar, 96 h, 4 days after infestation, read-out: control (% adult mortality)
Experimental: Bemisia tabaci (Neonicotinoid-Resistant, Cotton Whitefly-Metabolic Neonicotinoid-Resistant), Adult.
5 cm cotton leaf discs were placed upside down in petri dishes poured out with 11 mL 0.8% water agar and applied in a turntable spraying chamber. After drying of the spray deposits, leaf discs were infested with 10 adult neonicotinoid-resistant Bemisia tabaci. Dishes were covered with a fabric filter and sealed with a perforated plastic lid. Evaluation was made 4 days after infestation on % adult mortality.

[8] = tested on: Nilaparvata lugens (Brown Plant Hopper, metabolic neonicotinoid-resistant); assay: Nilaparvata lugens (metabolic neonicotinoid-resistant) larvicide, feeding/contact, rice plants; settings: 168 h, N3 nymphs, neonicotinoid-resistant strain, 7 days after treatment, read-out: control (mortality and growth regulation)
Experimental: Nilaparvata lugens (Brown Plant Hopper—Metabolic Neonicotinoid-Resistant), Larvicide, Feeding/Contact
Rice plants were treated with the diluted test solutions in a spray chamber. After drying, the plants were infested with ˜20 N3 nymphs. 7 days after the treatment, samples were assessed for mortality and growth regulation.

O=c1nc2n(Cc3ccc(Cl)nc3)cccc-2n1-c1cncc(F)c1 [Compound A26, 4-[(6-chloro-3-pyridyl)methyl]-1-(5-fluoro-3-pyridyl)imidazo[4,5-b]pyridin-2-one]
≥ 80%: mortality at 200 ppm [1] | mortality at 24 ppm [2] | mortality at 200 ppm [3] | mortality at 12 ppm [4]

Cc1ccc(-n2c3cccn(Cc4ccc(Cl)nc4)c-3nc2=O)cc1 [Compound A30, 4-[(6-chloro-3-pyridyl)methyl]-1-(p-tolyl)imidazo[4,5-b]pyridin-2-one]
≥ 80%: mortality at 200 ppm [1] | mortality at 200 ppm [3] | mortality at 12 ppm [4]

CCn1cc(-n2c3cccn(Cc4ccc(Cl)nc4)c-3nc2=O)cn1 [Compound A63, 4-[(6-chloro-3-pyridyl)methyl]-1-(1-ethylpyrazol-4-yl)imidazo[4,5-b]pyridin-2-one]
≥ 80%: mortality at 200 ppm [5] | mortality at 200 ppm [3] | mortality at 200 ppm [6] | mortality at 200 ppm [7] | mortality at 12 ppm [4]

Cc1c(-n2c3cccn(Cc4ccc(Cl)nc4)c-3nc2=O)cnn1C [Compound A92, 4-[(6-chloro-3-pyridyl)methyl]-1-(1,5-dimethylpyrazol-4-yl)imidazo[4,5-b]pyridin-2-one]
≥ 80%: mortality at 200 ppm [5] | mortality at 24 ppm [2] | mortality at 200 ppm [3] | mortality at 200 ppm [6] | mortality at 200 ppm [8] | mortality at 12 ppm [4]

O=c1nc2n(Cc3ccc(Cl)nc3)cccc-2n1-c1cnn(C2CC2)c1 [Compound A93, 4-[(6-chloro-3-pyridyl)methyl]-1-(1-cyclopropylpyrazol-4-yl)imidazo[4,5-b]pyridin-2-one]
≥ 80%: mortality at 200 ppm [5] | mortality at 24 ppm [2] | mortality at 200 ppm [3] | mortality at 200 ppm [6] | mortality at 200 ppm [8] | mortality at 12 ppm [4]
